Residues, ends and D or L forms follow the SMILES beside them.
Assays:
IL-1β mRNA = IL-1β mRNA level by RT-qPCR in hypoxic cardiomyocytes; format: cell-based; settings: hypoxic conditions
Method: (§1) Real-time RT-PCR experiments were performed in duplicates on an ABI 7900 instrument (Applied Biosystems™) using Taqman™ Master Mix (Applied Biosystems™). The average threshold cycles (Ct) of the duplicates were used to calculate the relative expression levels of the following genes: TLR4 (Applied Biosystems™ assay primer ID: Mm00569848_m1 Tlr4), TLR2 (assay primer ID: Mm01769726_m1 Tlr2), TNF-α (assay primer ID: Mm00443260_g1 Tnf) and IL-1β (assay primer ID: Mm00434228_m1 II1b) in vitro and in vivo following hypoxia or ischemia, respectively. The reference gene was TBP and the primer used was derived from mouse TATA-box binding protein (Applied Biosystems™ assay primer ID: Mm00446973_m1 Tbp). Amounts of TLR2, TLR4, TNF-α and IL-1β mRNAs in each sample were calculated relative to TBP mRNA, based on the corresponding Cts, as Relative Quantity (RQ) values, and normalized taking as 1 a randomly selected sample of the control group (TBP mRNA). […]
Decoy peptides represented by compounds PM1-PM10 were tested in vitro for their ability to decrease the level of CK and LDH released by stressed cardiomyocytes following exposure to LPS or hypoxic stimulation, and further evaluated for their ability to affect the level of IL-1β and TLR4 mRNA, and expression of IκB and TLR4 proteins, according to the protocols described in Materials and Methods and in Example 5 herein above.

TNF-α mRNA = TNF-α mRNA in mouse myocardium by RT-qPCR after ischemia; format: in vivo, mice; settings: 0.3 mg/kg 1 hour after MI induction
Method: as §1
Real time reverse transcriptase PCR (RT-qPCR) was conducted to identify the effect of a disclosed decoy peptide on TLR-mediated induction of the inflammatory cytokine TNF-α. The effect of an exemplary decoy peptide PM6 (0.3 mg/kg; administered 1 hour after MI induction) on TNF-α mRNA expression in mice myocardium was assessed 24 h and 7 days after ischemia induction.

C57BL mice = assay: Serum markers CK, LDH, troponin and GOT after LAD ligation; format: in vivo; settings: 0.3 mg/kg IV one hour after ligation
TLR4 = molecular target: T1, TLR4 (Homo sapiens, UniProt O00206); assay: FACS analysis of TLR4 expressed by macrophages exposed to LPS; format: cell-based; settings: 10 μM
T1 construct: FACS analysis to test the expression of TLR4 protein by macrophages under LPS treatment; endogenous in cells; host or cells: human peripheral-blood monocytes differentiated into macrophages with M-CSF
Method: Flow cytometry is an analytical cell-biology technique that utilizes light to count and profile cells in a heterogenous fluid mixture. Flow cytometry analysis was used to evaluate binding of antibodies to TLR4 presenting cells. In this assay, an anti-TLR4 antibody was added to a monocytes suspension and cells which bound the antibody were visualized by a fluorescently labeled secondary antibody that bound to the anti-TLR4 antibody (Ab). Accordingly, samples were first “labeled” with the anti-TLR4 antibody, then incubated with Fluor® 488 conjugated to a secondary Ab for TLR4 (CD284) positive cells visualization.
In order to confirm the specificity of binding, and further in order to correct for non-specific or background staining, isotypes control mouse IgGs were added to cell suspensions at the same concentration as the anti-TLR4 Abs. To deduct the non-specific or background staining from the positive staining due to direct Ab binding to the antigen, the level of background staining was assessed by the use of the same fluorochrome as that used for staining the anti-TLR4 Ab.
Peripheral blood (30 ml) was obtained for the isolation of monocytes. Monocytes were purified by density gradient centrifugation as described above, and/or by adherence to plastic in RPMI 1640 medium supplemented with 10% fetal bovine serum (FBS) and antibiotics. Peripheral blood mononuclear cells (PBMCs) (10^6 cells/ml) were first seeded into 24-well plates (0.5 ml per well), after 2 hours, non-adherent cells were removed by several washes with warm PBS.
Monocytes freshly isolated either by density gradient centrifugation by adherence differentiated into macrophages in complete RPMI 1640 medium supplemented with human recombinant macrophage colony stimulating factor (100 ng/ml) for 6 days. To confirm macrophage cell lineage, direct immunostaining was performed with an antibody directed against CD11b/mac1 (Biolegend® Inc., San Diego, Calif., USA). Eighty percent (80%) of positive staining was observed by flow cytometry analysis. The proportion of TLR4 in this separated cell fraction was examined by FACS analysis using, as isotype control, mouse IgG2a IsoControl (eBioscience™ #53-4724-80), and mouse anti-human CD284 Alexa Fluor® 488 Clone FITA125 secondary Ab (Isotype IgG2a. eBioscience™ #53-9917-41), which recognizes the human TLR4 (also known as CD284) cell surface antigen. Cells were analyzed in a BC Gallios Flow Cytometer (Beckman Coulter, Indianapolis Ind., USA) and were initially gated on the basis of forward and side scatter characteristics. Kaluza Software was used to analyze the results. Results are expressed as mean fluorescence intensity (MFI) and also as normalized to control. […]

T1 sequence (O00206 24-839): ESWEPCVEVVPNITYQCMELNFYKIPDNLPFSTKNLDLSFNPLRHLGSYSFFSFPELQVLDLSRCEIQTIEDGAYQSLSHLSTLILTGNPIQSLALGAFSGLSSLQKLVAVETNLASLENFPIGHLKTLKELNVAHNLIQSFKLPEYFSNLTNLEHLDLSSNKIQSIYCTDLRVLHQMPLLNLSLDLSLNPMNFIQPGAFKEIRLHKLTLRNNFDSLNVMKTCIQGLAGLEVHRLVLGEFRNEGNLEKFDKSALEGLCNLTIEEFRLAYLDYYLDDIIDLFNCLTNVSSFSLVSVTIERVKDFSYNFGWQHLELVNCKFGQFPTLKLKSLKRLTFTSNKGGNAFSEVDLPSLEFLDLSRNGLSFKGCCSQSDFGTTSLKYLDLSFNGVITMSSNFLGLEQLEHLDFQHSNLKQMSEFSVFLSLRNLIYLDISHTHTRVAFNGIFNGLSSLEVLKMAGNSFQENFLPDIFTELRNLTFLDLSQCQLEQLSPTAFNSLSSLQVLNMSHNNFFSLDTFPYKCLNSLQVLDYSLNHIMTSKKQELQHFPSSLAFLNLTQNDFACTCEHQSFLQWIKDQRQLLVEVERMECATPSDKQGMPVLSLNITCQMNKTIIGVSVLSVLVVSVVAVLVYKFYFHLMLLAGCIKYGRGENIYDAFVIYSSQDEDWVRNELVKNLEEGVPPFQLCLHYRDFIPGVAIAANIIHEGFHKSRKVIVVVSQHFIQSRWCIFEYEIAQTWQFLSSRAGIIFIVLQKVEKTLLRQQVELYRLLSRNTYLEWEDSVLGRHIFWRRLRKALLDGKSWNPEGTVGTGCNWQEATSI

Row | Compound | inhibition of IL-1β mRNA production (IL-1β mRNA) [fold] | TNF-α mRNA level in myocardium (TNF-α mRNA; 24 h) | TNF-α mRNA level in myocardium (TNF-α mRNA; 7 days) | blood level of CK (C57BL mice; 1 week) | blood level of LDH (C57BL mice; 1 week) | level of GOT (C57BL mice; 24 h and 7 days) | blood level of CK (C57BL mice; 24 hours) | blood level of LDH (C57BL mice; 24 hours) | TLR4 expression level (TLR4; 30 min before LPS (100 ng/ml or 20 μg/ml), 4 hours) | lowering the expression of TLR4 in the presence of LPS, compared with SEQ ID NO: 25 (TLR4; low and high LPS)
1 | CCCCCCCCNc1nc(=O)n(Cc2ccccc2)cc1C [PM6, 1-benzyl-5-methyl-4-(octylamino)pyrimidin-2(1H)-one] | ~12 | significant reduction | significant reduction | very impressive down regulation | very impressive down regulation | did not changed dramatically | very impressive down regulation | very impressive down regulation |  | 
2 | CC[C@H](C)[C@H](NC(C)=O)C(=O)N[C@H](C(=O)N[C@@H](Cc1ccccc1)C(=O)N[C@@H](C)C(N)=O)C(C)C [SEQ ID NO:1, (2S,3S)-2-acetamido-N-((S)-1-(((S)-1-(((S)-1-amino-1-oxopropan-2-yl)amino)-1-oxo-3-phenylpropan-2-yl)amino)-3-methyl-1-oxobutan-2-yl)-3-methylpentanamide] (Ac-IVFA-NH2) |  |  |  |  |  |  |  |  | toward baseline levels | more effective

Source: patent US11925643B2, “Toll-like receptor 4 (TLR4) inhibitors and use thereof” (MOR RESEARCH APPLICATIONS LTD., priority 2018, dated 2024)
